From patent US20080221116A1, “ISOXAZOLINE ALPHA 1a/1d ADRENORECEPTOR ANTAGONISTS” (priority 2006, published 2008)
“And” between values parts separate entries of the source, which are not always exact repeats. Identical values can stand only once. Like-named read-outs stand apart in the source and are kept apart here.

Assays:
Settings in all cases: COS-7 membranes
α1d-AR = target: T1, α1d-AR (Homo sapiens, UniProt P25100); experiment: α1-Adrenergic Receptor Binding Assay, 125I-HEAT radio-ligand binding, transfected COS-7 cell membranes, α1d subtype
T1 construct: expressed in transfected cells; host or cells: COS-7 cells (African Green monkey kidney), membranes
T1 sequence (P25100 1-572): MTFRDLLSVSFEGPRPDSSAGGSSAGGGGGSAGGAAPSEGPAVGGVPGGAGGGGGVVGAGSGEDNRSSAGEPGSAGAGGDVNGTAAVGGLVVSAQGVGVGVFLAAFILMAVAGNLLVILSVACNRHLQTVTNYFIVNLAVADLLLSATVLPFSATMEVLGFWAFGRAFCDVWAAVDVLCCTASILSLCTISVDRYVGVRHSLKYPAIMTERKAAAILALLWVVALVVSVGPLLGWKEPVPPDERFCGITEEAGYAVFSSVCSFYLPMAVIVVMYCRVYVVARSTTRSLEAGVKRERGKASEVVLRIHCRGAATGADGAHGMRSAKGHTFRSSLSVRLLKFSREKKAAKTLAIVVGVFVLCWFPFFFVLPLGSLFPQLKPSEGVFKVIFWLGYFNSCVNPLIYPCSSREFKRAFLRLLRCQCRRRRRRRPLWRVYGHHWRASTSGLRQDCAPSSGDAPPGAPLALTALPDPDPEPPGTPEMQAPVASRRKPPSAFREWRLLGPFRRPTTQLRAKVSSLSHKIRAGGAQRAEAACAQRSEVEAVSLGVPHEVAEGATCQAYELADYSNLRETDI
Experimental: (§1) Membranes were prepared from COS-7 cells (African Green monkey kidney SV40-transformed cells) that had been transfected with one of the three α1-AR subtypes by the following method: COS cells from ten 100 mm tissue culture plates were scraped into a 5 ml volume of TE (a mixture of 50 mM tris(hydroxymethyl)aminomethane hydrochloride (Tris-HCl) and 5 mM ethylenediaminetetraacetic acid (EDTA) at pH 7.4). The cell suspension was disrupted with a Brinkman Polytron (at a setting of 8) for 10 sec. The disrupted cells were centrifuged at 1000×g for 10 min at 4° C. Supernatants were centrifuged at 34,500×g for 20 min at 4° C. The membrane pellets were suspended in a 2 ml volume of TNE (a mixture of 50 mM Tris-HCl, 5 mM EDTA and 150 mM NaCl at pH7.4). An aliquot of the membrane suspension was stored at −70° C. until use. The protein concentration was determined using a BioRad “DC” protein assay kit following membrane solubilization with Triton X-100.
(§2) Triplicate determinations of radio-ligand binding in the presence of increasing concentrations of testing compound were made. The reagents were added to 96-well polypropylene plate wells. Each assay well contained 140 μL TNE, 25 μL 125′-2-(β-4-hydroxyphenyl)ethylaminomethyltetralone (^125I-HEAT) (specific activity 2200 Ci/mmol, Dupont-New England Nuclear, […] final), 10 μL testing compound dissolved in dimethyl sulfoxide (DMSO) ([…] to 10 μM in half-log increments, final), and 25 μL appropriate α1-AR membrane subtype suspension in TNE (0.5 ng/μL for the α1a and α1b subtypes and 13 ng/μL for the α1d subtype). The plate was incubated at rt for 1 hr. The contents of the wells were filtered through a glass filter (type C) (GF/C) membrane Unifilter plate (Packard Instruments) using the Packard Filtermate cell harvester. The filter plates were dried in a vacuum oven for 30 min at 40° C. 25 μL Microscint 20 liquid scintillation fluid (Packard Instuments) was added to each well. The radioactive content was analyzed in the TopCount microplate scintillation counter (Packard Instruments).
(§3) The Ki values (in nM) shown in Table 1 were determined using GraphPad Prism software.

α1b-AR = target: T2, α1b-AR (Homo sapiens, UniProt P35368); experiment: α1-Adrenergic Receptor Binding Assay, 125I-HEAT radio-ligand binding, transfected COS-7 cell membranes, α1b subtype
T2 construct: expressed in transfected cells; host or cells: COS-7 cells (African Green monkey kidney), membranes
T2 sequence (P35368 1-520): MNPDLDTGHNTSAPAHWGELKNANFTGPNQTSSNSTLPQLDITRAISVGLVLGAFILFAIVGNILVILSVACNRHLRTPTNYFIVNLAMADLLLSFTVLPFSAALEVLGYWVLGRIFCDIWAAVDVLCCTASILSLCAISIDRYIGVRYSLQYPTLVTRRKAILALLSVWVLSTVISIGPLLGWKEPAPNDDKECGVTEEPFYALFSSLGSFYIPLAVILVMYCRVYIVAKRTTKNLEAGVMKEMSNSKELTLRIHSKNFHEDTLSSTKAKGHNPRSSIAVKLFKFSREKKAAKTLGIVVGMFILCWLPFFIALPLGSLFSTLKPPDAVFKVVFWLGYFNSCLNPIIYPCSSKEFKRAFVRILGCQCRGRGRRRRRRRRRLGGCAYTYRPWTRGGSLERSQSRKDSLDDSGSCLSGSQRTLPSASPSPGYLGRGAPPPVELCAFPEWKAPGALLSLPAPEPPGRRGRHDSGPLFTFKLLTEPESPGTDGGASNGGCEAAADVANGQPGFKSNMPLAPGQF
Experimental: as §1, §2, §3

α1a-AR = target: T3, α1a-AR (Homo sapiens, UniProt P35348); experiment: α1-Adrenergic Receptor Binding Assay, 125I-HEAT radio-ligand binding, transfected COS-7 cell membranes, α1a subtype
T3 construct: expressed in transfected cells; host or cells: COS-7 cells (African Green monkey kidney), membranes
T3 sequence (P35348 1-466): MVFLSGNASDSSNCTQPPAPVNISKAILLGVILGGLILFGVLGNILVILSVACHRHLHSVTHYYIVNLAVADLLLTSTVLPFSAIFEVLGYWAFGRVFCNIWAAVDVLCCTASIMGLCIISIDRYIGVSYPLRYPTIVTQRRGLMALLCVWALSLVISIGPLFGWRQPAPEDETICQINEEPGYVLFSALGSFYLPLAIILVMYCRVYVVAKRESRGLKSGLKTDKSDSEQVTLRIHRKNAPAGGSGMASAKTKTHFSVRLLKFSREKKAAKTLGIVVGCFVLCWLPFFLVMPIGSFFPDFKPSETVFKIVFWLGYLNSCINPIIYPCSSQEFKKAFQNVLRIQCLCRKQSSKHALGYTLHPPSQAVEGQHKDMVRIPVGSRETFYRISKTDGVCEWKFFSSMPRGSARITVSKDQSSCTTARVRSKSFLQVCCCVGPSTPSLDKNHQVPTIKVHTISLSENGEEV
Experimental: as §1, §2, §3

[1] = average value, read-out: Alpha 1 Ki α1d (1) Average Value
[2] = individual values, read-out: Alpha 1 Ki α1d (2) Individual Values
[3] = average value, read-out: Alpha 1 Ki α1b (1) Average Value
[4] = individual values, read-out: Alpha 1 Ki α1b (2) Individual Values
[5] = average value, read-out: Alpha 1 Ki α1a (1) Average Value
[6] = individual values, read-out: Alpha 1 Ki α1a (2) Individual Values

SMILES	Ki (α1d-AR; [1]) [nM]	Ki (α1d-AR; [2])	Ki (α1b-AR; [3]) [nM]	Ki (α1b-AR; [4])	Ki (α1a-AR; [5]) [nM]	Ki (α1a-AR; [6])
CC(C)Oc1ccccc1N1CCN(CC2CC(C(=O)N3CCc4cc(Cl)ccc43)=NO2)CC1 (stereo not drawn) [Compound 16, (5-chloro-2,3-dihydro-indol-1-yl)-{5-[4-(2-isopropoxy-phenyl)-piperazin-1-ylmethyl]-4,5-dihydro-isoxazol-3-yl}-methanone]	4.7	4.7 nM	133	133 nM	8.3	8.3 nM
CC(C)Oc1ccccc1N1CCN(CC2CC(C(=O)N3CCN(c4ccccc4OC(C)C)CC3)=NO2)CC1 (stereo not drawn) [Compound 17, [4-(2-isopropoxy-phenyl)-piperazin-1-yl]-{5-[4-(2-isopropoxy-phenyl)-piperazin-1-ylmethyl]-4,5-dihydro-isoxazol-3-yl}-methanone]	6.6	6.6 nM	187	187 nM	16.3	16.3 nM
CC(C)Oc1ccccc1N1CCN(CC2CC(C(=O)N3CCC(C(=O)c4ccc(F)cc4)CC3)=NO2)CC1 (stereo not drawn) [Compound 18, [4-(4-fluoro-benzoyl)-piperidin-1-yl]-{5-[4-(2-isopropoxy-phenyl)-piperazin-1-ylmethyl]-4,5-dihydro-isoxazol-3-yl}-methanone]	21.5	22 nM and 21 nM	423	423 nM	7.9	9.9 nM and 5.9 nM
CC(C)Oc1ccccc1N1CCN(CC2CC(C(=O)N3CC(C)(C)c4cc(Br)ccc43)=NO2)CC1 (stereo not drawn) [Compound 19, (5-bromo-3,3-dimethyl-2,3-dihydro-indol-1-yl)-{5-[4-(2-isopropoxy-phenyl)-piperazin-1-ylmethyl]-4,5-dihydro-isoxazol-3-yl}-methanone]	0.6	0.4 nM and 0.8 nM	280	302 nM and 258 nM	13	13 nM
CC(C)Oc1ccccc1N1CCN(CC2CC(C(=O)N3CCc4cc(F)ccc43)=NO2)CC1 (stereo not drawn) [Compound 20, (5-fluoro-2,3-dihydro-indol-1-yl)-{5-[4-(2-isopropoxy-phenyl)-piperazin-1-ylmethyl]-4,5-dihydro-isoxazol-3-yl}-methanone]	0.623	0.145 nM and 1.1 nM	112	97.2 nM and 126 nM	2.23	1.35 nM and 3.1 nM
CC(C)Oc1ccccc1N1CCN(CC2CC(C(=O)N3CCC(C(=O)c4ccccc4)CC3)=NO2)CC1 (stereo not drawn) [Compound 21, (4-benzoyl-piperidin-1-yl)-{5-[4-(2-isopropoxy-phenyl)-piperazin-1-ylmethyl]-4,5-dihydro-isoxazol-3-yl}-methanone]	7.65	5.5 nM and 9.8 nM	224	288 nM and 160 nM	5.25	3.2 nM and 7.3 nM
CC(=O)N1CCc2cc(NC(=O)C3=NOC(CN4CCN(c5ccccc5OC(C)C)CC4)C3)ccc21 (stereo not drawn) [Compound 22, 5-[4-(2-isopropoxy-phenyl)-piperazin-1-ylmethyl]-4,5-dihydro-isoxazole-3-carboxylic acid (1-acetyl-2,3-dihydro-1H-indol-5-yl)-amide]	1.81	1.5 nM and 2.13 nM	80.4	73 nM and 87.7 nM	2.02	2.54 nM and 1.5 nM
COc1cc2c(cc1OC)N(C(=O)C1=NOC(CN3CCN(c4ccccc4OC(C)C)CC3)C1)CC2 (stereo not drawn) [Compound 23, (5,6-dimethoxy-2,3-dihydro-indol-1-yl)-{5-[4-(2-isopropoxy-phenyl)-piperazin-1-ylmethyl]-4,5-dihydro-isoxazol-3-yl}-methanone]	6.56	6.56 nM	259	259 nM	5.65	5.65 nM
CC(=O)N1CCc2ccc(NC(=O)C3=NOC(CN4CCN(c5ccccc5OC(C)C)CC4)C3)cc21 (stereo not drawn) [Compound 24, 5-[4-(2-isopropoxy-phenyl)-piperazin-1-ylmethyl]-4,5-dihydro-isoxazole-3-carboxylic acid (1-acetyl-2,3-dihydro-1H-indol-6-yl)-amide]	3.95	3.95 nM	101	101 nM	5.46	5.46 nM
Cc1ccc2c(c1)CCN2C(=O)C1=NOC(CN2CCN(c3ccccc3OC(C)C)CC2)C1 (stereo not drawn) [Compound 25, {5-[4-(2-isopropoxy-phenyl)-piperazin-1-ylmethyl]-4,5-dihydro-isoxazol-3-yl}-(5-methyl-2,3-dihydro-indol-1-yl)-methanone]	0.12	0.12 nM	71	71 nM	3.5	3.5 nM
CC(C)Oc1ccccc1N1CCN(CC2CC(C(=O)N3CCCc4ccccc43)=NO2)CC1 (stereo not drawn) [Compound 26, (3,4-dihydro-2H-quinolin-1-yl)-{5-[4-(2-isopropoxy-phenyl)-piperazin-1-ylmethyl]-4,5-dihydro-isoxazol-3-yl}-methanone]	11	11 nM	258	258 nM	6.7	6.7 nM
CC(C)Oc1ccccc1N1CCN(CC2CC(C(=O)N3CCC(Cc4ccccc4)CC3)=NO2)CC1 (stereo not drawn) [Compound 27, (4-benzyl-piperidin-1-yl)-{5-[4-(2-isopropoxy-phenyl)-piperazin-1-ylmethyl]-4,5-dihydro-isoxazol-3-yl}-methanone]	6.5	6.5 nM	219	219 nM	11.6	11.6 nM
CC(C)Oc1ccccc1N1CCN(CC2CC(C(=O)N3CCOCC3)=NO2)CC1 (stereo not drawn) [Compound 28, {5-[4-(2-isopropoxy-phenyl)-piperazin-1-ylmethyl]-4,5-dihydro-isoxazol-3-yl}-morpholin-4-yl-methanone]	27.2	27.2 nM	691	691 nM	3	3 nM
